Data published in patent publication US9365572B2, “PI3K and/or mTOR inhibitor” (XUANZHU PHARMA CO., LTD., priority 2012, dated 2016).

Key:
Assay in all cases: Kinase selectivity, Mobility shift assay
Assay type in all cases: biochemical
ABL = ABL (Homo sapiens (Human), UniProt P00519)
Description: (§1) Object: In this assay, the inhibitory activity of the test substance on the kinases listed in Table 3 was determined, and therefore the selectivity of the present compound was determined.
(§2) Except for the BRAF V600E kinase in Table 3, the Mobility shift assay was used for other kinases.
(§3) 1. Preparation of Agents:
(§4) • 1.1 1-fold kinase buffer without MnCl2: 50 mM HEPES, pH 7.5, 0.0015% Brij-35, 10 mM MgCl2, 2 mM DTT. • 1.2 1-fold kinase buffer with MnCl2: 50 mM HEPES, pH 7.5, 0.0015% Brij-35, 10 mM MgCl2, 10 mM MnCl2, 2 mM DTT. • 1.3 Termination solution: 100 mM HEPES, pH 7.5, 0.0015% Brij-35, 0.2% Coating Reagent#3, 50 mM EDTA. • 1.4 2.5-fold kinase solution: The kinase was added to the 1-fold kinase buffer to form a 2.5-fold kinase solution. • 1.5 2.5-fold substrate solution: FAM fluorescence-labelled polypeptide and ATP were added to the 1-fold kinase buffer to form a 2.5-fold substrate solution. 2. Preparation of 5-fold compound
(§5) The final test concentration of the compound was 10 μM at maximum. Firstly, a 50-fold concentration (i.e. 500 μM) was prepared with 100% DMSO. The compound was diluted with 100% DMSO by 5 folds at 5 concentrations (successively 500 μM, 100 μM, 20 μM, 4 μM, and 0.8 μM). After diluting with 1-fold kinase buffer by 10 folds, 5 μl of the samples were transferred to a 384-well reaction plate. Two negative control wells and two positive control wells were set at each line respectively. Replication was made in a 96-well plate in five concentrations of 5-fold compound. 10% DMSO was added to the positive control well, and 5 μl of EDTA (250 mM) was added to the negative control well.
(§6) • 3.1 To the 384-well reaction plate was added 5-fold compound dissolved in 10% DMSO at 5 μl/well. • 3.2 To the 384-well reaction plate was added 2.5-fold kinase solution at 10 μl/well. The plate was incubated at room temperature for 10 mins. • 3.3 To the 384-well reaction plate was added 2.5-fold substrate solution at 10 μl/well. The plate was incubated at 28° C. for a certain period. • 3.4 25 μl termination solution was added to terminate the reaction. The conversion was read from Caliper. 4. Inhibition rate calculation Inhibition rate (%)=(maximum−sample value)/(maximum−minimum)×100 • wherein: • maximum refers to the conversion at the DMSO control well, • minimum refers to the conversion at the control well without kinase. Lanthascreen Analysis Method for the BRAF V600E Kinase 1. Preparation of Agents: • 1.1 2-fold kinase solution: using 1-fold kinase buffer to prepare 2-fold kinase solution, with a final concentration of 0.35 nM of BRAFV600E; • 1.2 4-fold substrate solution: using 1-fold kinase buffer to prepare 4-fold substrate solution, with a final substrate solution concentration of 0.2 μM of Fluorescein-MAP2K1 and 1.5 μM of ATP. 2. Preparation of 4-fold compound • The final test concentration of the compound was 10 μM at maximum. Firstly, a 100-fold concentration (i.e. 1000 μM) was prepared with 100% DMSO. The compound was diluted with 100% DMSO by 5 folds at 5 concentrations. The compound series was identical to that in the Mobility Shift Assay. After diluting with 1-fold kinase buffer by 25 folds, the resulting samples were shaked and mixed evenly on a plate-shaker for 10 mins. 3. Procedure • 3.1 To the 384-well reaction plate was added 4-fold compound dissolved in 10% DMSO at 2.5 µl/well; • 3.2 To the 384-well reaction plate was added 2-fold kinase solution at 5 μl/well, and to the negative control wells were added 1-fold kinase buffer. The samples were shaked, mixed evenly, and kept standing at room temperature. • 3.3 To the 384-well reaction plate was added 4-fold substrate solution at 2.5 μl/well. The plate was reacted, shaked, mixed evenly and incubated at room temperature for one hour; • 3.4 Reaction result detection: 2-fold detection solution was prepared, with a final concentration of 2 nM of Antibody and 10 mM of EDTA. 10 μl of the detection solution was transferred to the 384-well plate to terminate the reaction. […]

AMPKa1 = AMPKa1 (Homo sapiens (Human), UniProt Q13131)
Description: as §1, §2, §3, §4, §5, §6

CAMK2a = CAMK2a (Homo sapiens (Human), UniProt Q9UQM7)
Description: as §1, §2, §3, §4, §5, §6

CDK2 = CDK2 (Homo sapiens (Human), UniProt P24941)
Description: as §1, §2, §3, §4, §5, §6

CHK1 = CHK1 (Homo sapiens (Human), UniProt O14757)
Description: as §1, §2, §3, §4, §5, §6

CK1d = CK1d (Homo sapiens (Human), UniProt P48730)
Description: as §1, §2, §3, §4, §5, §6

DYRK1b = DYRK1b (Homo sapiens (Human), UniProt Q9Y463)
Description: as §1, §2, §3, §4, §5, §6

EGFR = EGFR (Homo sapiens (Human), UniProt P00533)
Description: as §1, §2, §3, §4, §5, §6

IGF1R = IGF1R (Homo sapiens (Human), UniProt P08069)
Description: as §1, §2, §3, §4, §5, §6

JAK2 = JAK2 (Homo sapiens (Human), UniProt O60674)
Description: as §1, §2, §3, §4, §5, §6

JNK2 = JNK2 (Homo sapiens (Human), UniProt P45984)
Sequence of JNK2 (P45984 whole entry, species assumed): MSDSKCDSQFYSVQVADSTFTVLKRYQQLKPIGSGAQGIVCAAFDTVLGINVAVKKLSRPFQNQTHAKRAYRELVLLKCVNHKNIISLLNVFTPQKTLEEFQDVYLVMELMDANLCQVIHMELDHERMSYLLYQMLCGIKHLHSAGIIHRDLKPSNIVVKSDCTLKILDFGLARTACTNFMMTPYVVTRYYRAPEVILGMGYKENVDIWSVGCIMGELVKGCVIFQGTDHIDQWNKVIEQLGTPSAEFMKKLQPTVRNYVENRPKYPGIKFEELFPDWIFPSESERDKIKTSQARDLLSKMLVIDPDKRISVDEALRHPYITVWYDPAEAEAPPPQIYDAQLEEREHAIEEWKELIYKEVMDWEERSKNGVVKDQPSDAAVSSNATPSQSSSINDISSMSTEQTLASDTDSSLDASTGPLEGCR
Description: as §1, §2, §3, §4, §5, §6

KDR = KDR (Homo sapiens (Human), UniProt P35968)
Sequence of KDR (P35968 20-1356, species assumed): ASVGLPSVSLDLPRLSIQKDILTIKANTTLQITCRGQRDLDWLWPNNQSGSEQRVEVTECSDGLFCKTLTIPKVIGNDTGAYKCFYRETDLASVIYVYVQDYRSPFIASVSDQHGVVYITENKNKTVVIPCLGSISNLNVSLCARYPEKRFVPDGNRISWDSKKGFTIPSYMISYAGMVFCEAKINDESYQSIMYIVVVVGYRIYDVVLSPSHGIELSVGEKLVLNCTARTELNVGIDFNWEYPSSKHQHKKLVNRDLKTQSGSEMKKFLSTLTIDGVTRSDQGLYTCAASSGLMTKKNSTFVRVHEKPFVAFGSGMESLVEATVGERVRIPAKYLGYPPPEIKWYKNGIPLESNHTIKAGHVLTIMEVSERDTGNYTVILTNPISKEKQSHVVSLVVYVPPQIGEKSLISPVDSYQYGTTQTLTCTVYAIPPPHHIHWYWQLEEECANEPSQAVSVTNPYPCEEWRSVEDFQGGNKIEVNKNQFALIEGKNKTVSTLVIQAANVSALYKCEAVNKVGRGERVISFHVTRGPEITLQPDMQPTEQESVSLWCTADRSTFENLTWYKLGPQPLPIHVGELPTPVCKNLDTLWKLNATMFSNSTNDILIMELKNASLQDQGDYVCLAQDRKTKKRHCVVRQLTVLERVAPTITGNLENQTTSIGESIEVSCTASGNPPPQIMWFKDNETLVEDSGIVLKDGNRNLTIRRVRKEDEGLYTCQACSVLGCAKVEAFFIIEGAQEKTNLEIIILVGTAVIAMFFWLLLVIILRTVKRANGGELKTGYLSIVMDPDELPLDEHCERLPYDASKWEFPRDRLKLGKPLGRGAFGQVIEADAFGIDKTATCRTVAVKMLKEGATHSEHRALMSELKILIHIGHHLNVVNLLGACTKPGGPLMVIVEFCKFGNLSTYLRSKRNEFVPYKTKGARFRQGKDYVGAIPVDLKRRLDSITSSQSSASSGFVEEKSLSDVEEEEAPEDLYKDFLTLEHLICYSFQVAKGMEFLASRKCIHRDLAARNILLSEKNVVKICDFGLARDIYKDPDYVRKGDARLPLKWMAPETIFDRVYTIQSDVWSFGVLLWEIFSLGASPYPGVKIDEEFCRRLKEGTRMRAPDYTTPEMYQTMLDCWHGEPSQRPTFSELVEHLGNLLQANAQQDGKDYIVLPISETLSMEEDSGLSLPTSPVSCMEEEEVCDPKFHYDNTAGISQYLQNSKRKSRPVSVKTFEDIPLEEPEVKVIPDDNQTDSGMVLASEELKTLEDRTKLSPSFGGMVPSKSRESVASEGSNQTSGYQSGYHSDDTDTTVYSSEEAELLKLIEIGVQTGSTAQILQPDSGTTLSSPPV
Description: as §1, §2, §3, §4, §5, §6

LYNa = LYNa (Homo sapiens (Human), UniProt P07948)
Sequence of LYNa (P07948 whole entry, species assumed): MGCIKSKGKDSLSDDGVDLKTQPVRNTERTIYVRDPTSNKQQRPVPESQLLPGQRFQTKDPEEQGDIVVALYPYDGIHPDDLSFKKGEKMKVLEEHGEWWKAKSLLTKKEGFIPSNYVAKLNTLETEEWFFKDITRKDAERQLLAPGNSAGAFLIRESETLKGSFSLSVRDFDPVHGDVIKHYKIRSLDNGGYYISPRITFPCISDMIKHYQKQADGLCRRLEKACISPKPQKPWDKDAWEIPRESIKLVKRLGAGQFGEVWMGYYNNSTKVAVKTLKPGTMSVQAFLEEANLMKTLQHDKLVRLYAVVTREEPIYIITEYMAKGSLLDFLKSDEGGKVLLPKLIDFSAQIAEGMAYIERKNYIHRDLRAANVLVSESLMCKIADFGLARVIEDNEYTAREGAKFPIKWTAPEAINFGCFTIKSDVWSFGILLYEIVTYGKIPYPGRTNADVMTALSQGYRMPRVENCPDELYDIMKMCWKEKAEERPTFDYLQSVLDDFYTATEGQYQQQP
Description: as §1, §2, §3, §4, §5, §6

MARK1 = MARK1 (Homo sapiens (Human), UniProt Q9P0L2)
Description: as §1, §2, §3, §4, §5, §6

NEK2 = NEK2 (Homo sapiens (Human), UniProt P51955)
Sequence of NEK2 (P51955 whole entry, species assumed): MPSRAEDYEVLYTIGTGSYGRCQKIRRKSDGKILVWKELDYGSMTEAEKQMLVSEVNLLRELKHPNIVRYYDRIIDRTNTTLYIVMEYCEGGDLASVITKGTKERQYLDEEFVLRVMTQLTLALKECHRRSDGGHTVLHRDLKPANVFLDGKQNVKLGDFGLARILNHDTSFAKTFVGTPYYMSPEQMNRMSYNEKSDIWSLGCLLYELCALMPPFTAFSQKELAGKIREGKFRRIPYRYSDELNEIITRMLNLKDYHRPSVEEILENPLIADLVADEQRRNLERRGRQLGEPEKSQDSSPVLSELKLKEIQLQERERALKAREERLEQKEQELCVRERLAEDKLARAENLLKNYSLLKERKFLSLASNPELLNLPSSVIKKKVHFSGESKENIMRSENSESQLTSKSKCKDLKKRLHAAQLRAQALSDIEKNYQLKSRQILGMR
Description: as §1, §2, §3, §4, §5, §6

PAK2 = PAK2 (Homo sapiens (Human), UniProt Q13177)
Sequence of PAK2 (Q13177 whole entry, species assumed): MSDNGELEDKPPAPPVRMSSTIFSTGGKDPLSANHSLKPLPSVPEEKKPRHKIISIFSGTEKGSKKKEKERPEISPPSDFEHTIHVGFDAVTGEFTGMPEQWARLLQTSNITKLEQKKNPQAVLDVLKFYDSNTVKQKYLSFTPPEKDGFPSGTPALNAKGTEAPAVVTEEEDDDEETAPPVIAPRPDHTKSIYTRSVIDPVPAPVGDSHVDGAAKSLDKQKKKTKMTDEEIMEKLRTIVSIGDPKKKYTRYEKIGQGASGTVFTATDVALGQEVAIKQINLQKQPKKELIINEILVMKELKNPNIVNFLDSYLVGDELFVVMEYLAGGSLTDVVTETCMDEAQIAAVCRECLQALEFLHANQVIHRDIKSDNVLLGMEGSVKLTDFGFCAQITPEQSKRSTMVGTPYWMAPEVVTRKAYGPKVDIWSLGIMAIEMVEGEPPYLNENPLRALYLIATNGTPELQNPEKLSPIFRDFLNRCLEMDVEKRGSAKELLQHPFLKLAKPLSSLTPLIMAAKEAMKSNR
Description: as §1, §2, §3, §4, §5, §6

PDK1 = PDK1 (Homo sapiens (Human), UniProt O15530)
Sequence of PDK1 (O15530 whole entry): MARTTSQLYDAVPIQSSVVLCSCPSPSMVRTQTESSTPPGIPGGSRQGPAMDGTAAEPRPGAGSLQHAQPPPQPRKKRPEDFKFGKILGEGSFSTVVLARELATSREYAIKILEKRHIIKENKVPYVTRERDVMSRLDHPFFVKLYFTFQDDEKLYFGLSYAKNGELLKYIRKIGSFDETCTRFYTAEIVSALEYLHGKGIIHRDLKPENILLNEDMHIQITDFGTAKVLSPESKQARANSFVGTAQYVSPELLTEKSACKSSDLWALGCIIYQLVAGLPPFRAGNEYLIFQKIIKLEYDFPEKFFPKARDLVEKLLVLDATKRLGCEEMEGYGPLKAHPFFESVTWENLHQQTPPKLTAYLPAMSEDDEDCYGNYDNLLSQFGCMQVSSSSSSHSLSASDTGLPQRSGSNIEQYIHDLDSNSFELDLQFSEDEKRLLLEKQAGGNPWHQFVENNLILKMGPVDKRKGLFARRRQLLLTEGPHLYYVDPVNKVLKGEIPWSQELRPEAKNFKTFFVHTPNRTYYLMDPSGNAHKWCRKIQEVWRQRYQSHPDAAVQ
Description: as §1, §2, §3, §4, §5, §6

ROCK2 = ROCK2 (Homo sapiens (Human), UniProt O75116)
Description: as §1, §2, §3, §4, §5, §6

p38a = p38a (Homo sapiens (Human), UniProt Q16539)
Description: as §1, §2, §3, §4, §5, §6

Sequence of ABL (P00519 whole entry, species assumed): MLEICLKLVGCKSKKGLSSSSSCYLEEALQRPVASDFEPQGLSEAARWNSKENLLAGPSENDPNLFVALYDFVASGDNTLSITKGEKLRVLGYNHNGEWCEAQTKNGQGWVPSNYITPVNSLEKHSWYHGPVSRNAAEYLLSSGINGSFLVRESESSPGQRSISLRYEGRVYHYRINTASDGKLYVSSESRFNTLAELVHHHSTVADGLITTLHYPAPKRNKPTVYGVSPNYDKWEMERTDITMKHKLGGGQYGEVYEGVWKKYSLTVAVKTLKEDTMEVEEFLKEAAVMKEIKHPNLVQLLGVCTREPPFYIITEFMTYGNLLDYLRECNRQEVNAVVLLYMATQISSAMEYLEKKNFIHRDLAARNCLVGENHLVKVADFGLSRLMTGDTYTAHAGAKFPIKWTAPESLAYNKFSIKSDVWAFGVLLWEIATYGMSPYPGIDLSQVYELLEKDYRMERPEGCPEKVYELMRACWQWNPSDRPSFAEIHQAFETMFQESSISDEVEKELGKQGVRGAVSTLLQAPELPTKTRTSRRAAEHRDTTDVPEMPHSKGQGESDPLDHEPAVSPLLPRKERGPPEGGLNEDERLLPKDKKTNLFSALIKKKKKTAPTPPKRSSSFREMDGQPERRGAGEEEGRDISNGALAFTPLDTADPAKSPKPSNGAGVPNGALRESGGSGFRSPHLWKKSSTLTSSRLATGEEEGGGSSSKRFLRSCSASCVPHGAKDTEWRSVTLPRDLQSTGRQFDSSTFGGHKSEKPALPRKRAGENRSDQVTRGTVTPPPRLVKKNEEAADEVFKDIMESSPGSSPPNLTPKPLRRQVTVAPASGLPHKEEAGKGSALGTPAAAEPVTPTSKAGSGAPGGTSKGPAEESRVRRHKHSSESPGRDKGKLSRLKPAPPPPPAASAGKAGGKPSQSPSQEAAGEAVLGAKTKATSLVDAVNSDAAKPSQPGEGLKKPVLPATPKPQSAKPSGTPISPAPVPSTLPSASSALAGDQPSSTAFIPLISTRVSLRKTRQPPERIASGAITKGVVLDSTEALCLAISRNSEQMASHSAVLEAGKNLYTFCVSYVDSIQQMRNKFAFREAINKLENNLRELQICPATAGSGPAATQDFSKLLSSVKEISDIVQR

Nc1ccc(-c2ccc3ncc4c(=O)[nH]c(=O)n(-c5cccc(C(F)(F)F)c5)c4c3n2)cn1 [Compound 5, 9-(6-aminopyridin-3-yl)-1-(3-(trifluoromethyl)phenyl)pyrimido[5,4-c][1,5]naphthyridine-2,4(1H,3H)-dione]
IC50 (ABL): > 10000 nM
IC50 (AMPKa1): > 10000 nM
IC50 (CAMK2a): > 10000 nM
IC50 (CDK2): > 10000 nM
IC50 (CHK1): > 10000 nM
IC50 (CK1d): > 10000 nM
IC50 (DYRK1b): > 10000 nM
IC50 (EGFR): > 10000 nM
IC50 (IGF1R): > 10000 nM
IC50 (JAK2): > 10000 nM
IC50 (JNK2): > 10000 nM
IC50 (KDR): > 10000 nM
IC50 (LYNa): 1370 nM
IC50 (MARK1): > 10000 nM
IC50 (NEK2): > 10000 nM
IC50 (PAK2): > 10000 nM
IC50 (PDK1): > 10000 nM
IC50 (ROCK2): > 10000 nM
IC50 (p38a): > 10000 nM
